In PubChem BioAssay AID2060499 (Molecular Pharmacology Branch, DTP, NCI, 2025):
pIC50: −log10 of the molar value.

System: 777334-354-R2-J4-PDC tumor spheroids with HUVEC/MSC, viability
Assay: Anticancer human tumor 777334-354-R2-J4-PDC patient-derived pancreatic adenocarcinoma cell line growth inhibition [GQUAD]
Details: for pIC50: curve of first compound; for viability, T/C: stronger effect = lower value
In short: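 Tumor cells were grown as complex spheroids with HUVEC endothelial cells and mesenchymal stem cells as stroma. G-quadruplex stabilizers were combined with targeted agents over half-log dilutions from near the clinical Cmax, or from 10 microM.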

[1] = second compound 0.0316 µM, first compound 0.0316 µM
[2] = second compound 0.0316 µM, first compound 0.1 µM
[3] = second compound 0.0316 µM, first compound 0.316 µM
[4] = second compound 0.0316 µM, first compound 1 µM
[5] = second compound 0.0316 µM, first compound 3.16 µM
[6] = second compound 0.0316 µM, first compound 10 µM
[7] = second compound 0.1 µM, first compound 0.0316 µM
[8] = second compound 0.1 µM, first compound 0.1 µM
[9] = second compound 0.1 µM, first compound 0.316 µM
[10] = second compound 0.1 µM, first compound 1 µM
[11] = second compound 0.1 µM, first compound 3.16 µM
[12] = second compound 0.1 µM, first compound 10 µM
[13] = second compound 0.316 µM, first compound 0.0316 µM
[14] = second compound 0.316 µM, first compound 0.1 µM
[15] = second compound 0.316 µM, first compound 0.316 µM
[16] = second compound 0.316 µM, first compound 1 µM
[17] = second compound 0.316 µM, first compound 3.16 µM
[18] = second compound 0.316 µM, first compound 10 µM
[19] = second compound 1 µM, first compound 0.0316 µM
[20] = second compound 1 µM, first compound 0.1 µM
[21] = second compound 1 µM, first compound 0.316 µM
[22] = second compound 1 µM, first compound 1 µM
[23] = second compound 1 µM, first compound 3.16 µM
[24] = second compound 1 µM, first compound 10 µM
[25] = second compound 3.16 µM, first compound 0.0316 µM
[26] = second compound 3.16 µM, first compound 0.1 µM
[27] = second compound 3.16 µM, first compound 0.316 µM
[28] = second compound 3.16 µM, first compound 1 µM
[29] = second compound 3.16 µM, first compound 3.16 µM
[30] = second compound 3.16 µM, first compound 10 µM
[31] = second compound 10 µM, first compound 0.0316 µM
[32] = second compound 10 µM, first compound 0.1 µM
[33] = second compound 10 µM, first compound 0.316 µM
[34] = second compound 10 µM, first compound 1 µM
[35] = second compound 10 µM, first compound 3.16 µM
[36] = second compound 10 µM, first compound 10 µM
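Note: spheroids exposed to compounds for 7 days before readout.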

CC1COCCN1c1cc(-c2ccnn2C)c2ccnc(-c3ccn[nH]3)c2n1 (stereo not drawn) + Cc1cnc(CNC(=O)c2c(=O)c3ccc(N4CCCN(C)CC4)nc3n3c2sc2ccccc23)cn1 showed a pIC50 (second compound 0.0316 µM) of 6.84, a pIC50 (second compound 0.1 µM) of 6.62 and a pIC50 (second compound 0.316 µM) of 6.48. The pIC50 (second compound 1 µM) was greater than 7.50, the pIC50 (second compound 3.16 µM) was greater than 7.50 and the pIC50 (second compound 10 µM) was greater than 7.50. For the same compound, the viability, T/C [1] was 73.2%, the viability, T/C [2] was 50.8% and the viability, T/C [3] was 45.5%. It also gave a viability, T/C [4] of 41.7%, a viability, T/C [5] of 43.1% and a viability, T/C [6] of 34.5%. For the same compound, the viability, T/C [7] was 59.8%, the viability, T/C [8] was 51.3% and the viability, T/C [9] was 47.8%. It also gave a viability, T/C [10] of 41.9%, a viability, T/C [11] of 44.1% and a viability, T/C [12] of 28.7%. It also gave a viability, T/C [13] of 56%, a viability, T/C [14] of 59.3% and a viability, T/C [15] of 48.6%. It also gave a viability, T/C [16] of 41.8%, a viability, T/C [17] of 38.6% and a viability, T/C [18] of 26.9%. For the same compound, the viability, T/C [19] was 48.3%, the viability, T/C [20] was 44.1% and the viability, T/C [21] was 52.8%. It also gave a viability, T/C [22] of 41.8%, a viability, T/C [23] of 36.2% and a viability, T/C [24] of 27.5%. For the same compound, the viability, T/C [25] was 44.5%, the viability, T/C [26] was 41% and the viability, T/C [27] was 41.7%. The viability, T/C [28] was 41.3%, the viability, T/C [29] was 29.6% and the viability, T/C [30] was 20%. The viability, T/C [31] was 42.8%, the viability, T/C [32] was 39.8% and the viability, T/C [33] was 44.7%. The viability, T/C [34] was 36.9%, the viability, T/C [35] was 32.5% and the viability, T/C [36] was 21.2%.

For C=CC(=O)N1CCN(c2nc(=O)n(-c3c(C)ccnc3C(C)C)c3nc(-c4c(O)cccc4F)c(F)cc23)C(C)C1 (stereo not drawn) + Cc1cnc(CNC(=O)c2c(=O)c3ccc(N4CCCN(C)CC4)nc3n3c2sc2ccccc23)cn1, the pIC50 (second compound 0.0316 µM) was less than 5.00, the pIC50 (second compound 0.1 µM) was less than 5.00 and the pIC50 (second compound 0.316 µM) was less than 5.00. The pIC50 (second compound 1 µM) was less than 5.00, the pIC50 (second compound 3.16 µM) was less than 5.00 and the pIC50 (second compound 10 µM) was less than 5.00. For the same compound, the viability, T/C [1] was 106%, the viability, T/C [2] was 75.7% and the viability, T/C [3] was 96.2%. For the same compound, the viability, T/C [4] was 106%, the viability, T/C [5] was 110% and the viability, T/C [6] was 97.2%. The viability, T/C [7] was 95.3%, the viability, T/C [8] was 79.4% and the viability, T/C [9] was 90.2%. The viability, T/C [10] was 89.9%, the viability, T/C [11] was 109% and the viability, T/C [12] was 81.2%. The viability, T/C [13] was 81.2%, the viability, T/C [14] was 91.3% and the viability, T/C [15] was 87.7%. For the same compound, the viability, T/C [16] was 104%, the viability, T/C [17] was 90.7% and the viability, T/C [18] was 76.3%. The viability, T/C [19] was 73.7%, the viability, T/C [20] was 74.1% and the viability, T/C [21] was 69.9%. The viability, T/C [22] was 81.4%, the viability, T/C [23] was 82.9% and the viability, T/C [24] was 71.5%. It also gave a viability, T/C [25] of 61.8%, a viability, T/C [26] of 60.8% and a viability, T/C [27] of 62.5%. For the same compound, the viability, T/C [28] was 66.8%, the viability, T/C [29] was 76.9% and the viability, T/C [30] was 55.3%. For the same compound, the viability, T/C [31] was 56.6%, the viability, T/C [32] was 55.3% and the viability, T/C [33] was 58.6%. The viability, T/C [34] was 70%, the viability, T/C [35] was 64.5% and the viability, T/C [36] was 49.9%.

Nc1ccn(C2OC(CO)C(O)C2(F)F)c(=O)n1 (stereo not drawn) + Cc1[nH]c2ccc(F)cc2c1-c1nc2c3cccnc3c3ncccc3c2[nH]1 gave a pIC50 (second compound 0.0316 µM) of 6.03, a pIC50 (second compound 0.1 µM) of 5.94 and a pIC50 (second compound 0.316 µM) of 6.09. The pIC50 (second compound 1 µM) was 6.33, the pIC50 (second compound 3.16 µM) was greater than 7.50 and the pIC50 (second compound 10 µM) was greater than 7.50. For the same compound, the viability, T/C [1] was 88%, the viability, T/C [2] was 67.5% and the viability, T/C [3] was 65%. It also gave a viability, T/C [4] of 46.3%, a viability, T/C [5] of 41.6% and a viability, T/C [6] of 34%. The viability, T/C [7] was 90.2%, the viability, T/C [8] was 74% and the viability, T/C [9] was 69.2%. For the same compound, the viability, T/C [10] was 47.6%, the viability, T/C [11] was 41.3% and the viability, T/C [12] was 32.1%. The viability, T/C [13] was 75.5%, the viability, T/C [14] was 84.7% and the viability, T/C [15] was 59.4%. It also gave a viability, T/C [16] of 49.7%, a viability, T/C [17] of 39.8% and a viability, T/C [18] of 35.5%. For the same compound, the viability, T/C [19] was 73.5%, the viability, T/C [20] was 68% and the viability, T/C [21] was 52.6%. The viability, T/C [22] was 40.7%, the viability, T/C [23] was 39.4% and the viability, T/C [24] was 29.3%. The viability, T/C [25] was 36.6%, the viability, T/C [26] was 31.7% and the viability, T/C [27] was 30.7%. For the same compound, the viability, T/C [28] was 13.8%, the viability, T/C [29] was 13.6% and the viability, T/C [30] was 12.9%. It also gave a viability, T/C [31] of 30%, a viability, T/C [32] of 26.9% and a viability, T/C [33] of 16.2%. It also gave a viability, T/C [34] of 10.3%, a viability, T/C [35] of 8.66% and a viability, T/C [36] of 7.59%.

With Cc1cccc(N(C)C(=O)C2C(O)CCN2c2nc(C)cc(C(F)(F)F)c2C#N)c1 (stereo not drawn) + Cc1[nH]c2ccc(F)cc2c1-c1nc2c3cccnc3c3ncccc3c2[nH]1 the pIC50 (second compound 0.0316 µM) was less than 5.00, the pIC50 (second compound 0.1 µM) was less than 5.00 and the pIC50 (second compound 0.316 µM) was less than 5.00. For the same compound, the pIC50 (second compound 1 µM) was less than 5.00, the pIC50 (second compound 3.16 µM) was greater than 7.50 and the pIC50 (second compound 10 µM) was greater than 7.50. For the same compound, the viability, T/C [1] was 112%, the viability, T/C [2] was 104% and the viability, T/C [3] was 95.3%. It also gave a viability, T/C [4] of 95.5%, a viability, T/C [5] of 94.5% and a viability, T/C [6] of 92.9%. For the same compound, the viability, T/C [7] was 97.6%, the viability, T/C [8] was 97% and the viability, T/C [9] was 92.1%. The viability, T/C [10] was 93.4%, the viability, T/C [11] was 103% and the viability, T/C [12] was 101%. For the same compound, the viability, T/C [13] was 95.3%, the viability, T/C [14] was 88.5% and the viability, T/C [15] was 101%. For the same compound, the viability, T/C [16] was 95.8%, the viability, T/C [17] was 95.8% and the viability, T/C [18] was 91.2%. The viability, T/C [19] was 78.8%, the viability, T/C [20] was 85.4% and the viability, T/C [21] was 83.3%. The viability, T/C [22] was 71%, the viability, T/C [23] was 90.4% and the viability, T/C [24] was 87.2%. The viability, T/C [25] was 35.1%, the viability, T/C [26] was 36.6% and the viability, T/C [27] was 37.3%. For the same compound, the viability, T/C [28] was 31.1%, the viability, T/C [29] was 33.5% and the viability, T/C [30] was 46%. The viability, T/C [31] was 32.4%, the viability, T/C [32] was 34.5% and the viability, T/C [33] was 35.7%. For the same compound, the viability, T/C [34] was 30.5%, the viability, T/C [35] was 25.7% and the viability, T/C [36] was 38.8%.
